The text below walks through data of patent US11679107B2 (Eisai R&D Management Co., Ltd., priority 2018, dated 2023).

In assay [1] the test system is Ad2 variant pre-mRNAs spliced in HeLa S3 nuclear extracts. In words: In vitro splicing assay (IVS), RT-qPCR of spliced product. The format is biochemical. The following applies: for IC50: geometric mean; for Ratio Ad2.1/2.2: ratio of IVS IC50 Ad2.1 to Ad2.2. Summed up: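 Read-out is one-step TaqMan RT-qPCR of spliced Ad2 mRNA with Ftz as reference, normalized to DMSO and fit by non-linear regression. Reactions held HeLa S3 nuclear extract, 2 ng Ad2-derived pre-mRNA and test compound, with 15 min preincubation. Splicing was started with ATP-containing activation buffer and run 90 min at 30 °C.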

The target in assay [2] is T1, SF3b complexes (Homo sapiens, UniProt O75533+Q7RTV0).
T1 construct: endogenous in cells; host or cells: Nuclear extracts; A HeLa S3 extract preparation is described for the in vitro splicing assay
In words: Scintillation proximity assay (SPA) with [3H]-labelled pladienolide probe. The following applies: SF3B1 (WT); geometric mean; read-out: SPA-ATS GMean IC50 (nM) SF3B1 (WT). The format is binding. Summed up: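 SF3b complexes captured from nuclear extracts on anti-SF3B1 antibody SPA beads; test compounds pre-incubated 30 min before 2.5 nM [3H]-pladienolide probe added, then 30 min incubation. Bound probe read by scintillation; values from non-linear regression of concentration–response curves.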

For assay [3], the system named is NCI-H1568 cells (high MCL1). In words: Cell proliferation and viability, CellTiter-Glo, 72 hours. The assay is classed as cell-based. The settings on record: for GI50: geometric mean. Summed up:
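ATP luminescence (CellTiter-Glo) was measured 72 h after treatment with compound at 10 μM–100 pM (11 points, half-log) in 0.1% DMSO. The Panc line was grown in RPMI-1640 plus insulin and 15% FBS, the other in 10% FBS. Data were normalised to time zero and vehicle controls, where −100% is cidal and 0% static.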

Setting [4] is: Ad2.1 pre-mRNA substrate, read-out: qPCR-IVS-ATS GMean IC50 (nM) Ad2.1.
Where [5] appears, read: Ad2.2 pre-mRNA substrate, read-out: qPCR-IVS-ATS GMean IC50 (nM) Ad2.2.
Where [6] appears, read: 72 h, NCIH1568.1, -100% = cidal, 0% = static, 100% = uninhibited growth.
Where [7] appears, read: NCI-H1568, 72 h, read-out: CTGlo-ATS GMean GI50 (nM) 72 h NCIH1568.1, NCIH1568.1 cells, 72 h.
The mark [8] stands for this setting: NCIH1568.1 cells, 72 h, −100% cidal, 0% static, 100% maximal growth.
Where [9] appears, read: NCI-H1568, read-out: CTGlo-ATS GMean GI50 (nM) 72 h NCIH1568.1, NCIH1568.1 cells, 72 h.

Like-named read-outs stand apart in the source and are kept apart here.

For `C/C(=C\c1cc(F)cc(N2CCN(C(=O)Cn3cccn3)CC2)c1)[C@H]1OC(=O)C[C@H](O)CC[C@H](C)[C@@H](OC(=O)N(C)C2CCN(C)CC2)/C=C/[C@@H]1C` [Compound 233, [(2S,3S,4E,6R,7S,10R)-2-[(E)-1-[3-fluoro-5-[4-(2-pyrazol-1-ylacetyl)piperazin-1-yl]phenyl]prop-1-en-2-yl]-10-hydroxy-3,7-dimethyl-12-oxo-1-oxacyclododec-4-en-6-yl] N-methyl-N-(1-methylpiperidin-4-yl)carbamate], the IC50 in assay [1] (setting [4]) was 5.87 nM; in assay [1] (setting [5]), 6.05 nM; in assay [2], 2.46 nM. Also, the “Ratio Ad2.1/2.2” value in assay [1] worked out at 0.971. Moreover, the “CTGlo-ATS Mean MinResponse % 72 h NCIH1568.1” value in assay [3] (setting [6]) was −87.288%. Besides, in assay [3] (NCI-H1568, read-out: CTGlo-ATS GMean GI50 (nM) 72 h NCIH1568.1, 72 h, NCIH1568.1), the GI50 was 1.98 nM.
Regarding `CC(=O)N1CCC(n2cnc3c(F)cc(/C=C(\C)[C@H]4OC(=O)C[C@H](O)CC[C@H](C)[C@@H](OC(=O)N5CCN(C)CC5)/C=C/[C@@H]4C)cc32)CC1` [Compound 146], the values for the IC50 in assay [1] (setting [4]), in assay [1] (setting [5]) and in assay [2] were 11.1 nM, 12.7 nM and 22.7 nM, respectively. Further, in assay [3] (setting [7]), the GI50 was 2.79 nM. Besides, in assay [3] (setting [8]), the “CTGlo-ATS Mean MinResponse % 72 h NCIH1568.1” value was −88.975%.
Take `C/C(=C\c1cc(F)cc(N(C)C2CCN(C(=O)NC(C)C)CC2)c1)[C@H]1OC(=O)C[C@H](O)CC[C@H](C)[C@@H](OC(=O)N2CCN(C)CC2)/C=C/[C@@H]1C` [Compound 191]: the values for the IC50 in assay [1] (setting [4]), in assay [1] (setting [5]) and in assay [2] were 11.6 nM, 7.47 nM and 3.47 nM, respectively. In addition, the GI50 in assay [3] (setting [9]) worked out at 6.33 nM. In assay [3] (setting [8]), the “CTGlo-ATS Mean MinResponse % 72 h NCIH1568.1” value was −83.895%.
Consider `COc1ccc(-n2nnc3c(F)cc(/C=C(\C)[C@H]4OC(=O)C[C@H](O)CC[C@H](C)[C@@H](OC(=O)N5CCN(C)CC5)/C=C/[C@@H]4C)cc32)cc1` [Compound 165], for which the concentration for half-maximal inhibition (IC50) in assay [1] (setting [4]) is 29.5 nM; in assay [1] (setting [5]), 15.2 nM; in assay [2], 18.7 nM. Also, the GI50 in assay [3] (setting [9]) is 10 nM. Moreover, in assay [3] (setting [8]), the “CTGlo-ATS Mean MinResponse % 72 h NCIH1568.1” value was −78.159%.
The matching figures for `C/C(=C\c1cc(F)cc(N(C)C2CCN(S(=O)(=O)c3ccccc3)CC2)c1)[C@H]1OC(=O)C[C@H](O)CC[C@H](C)[C@@H](OC(=O)N2CCN(C)CC2)/C=C/[C@@H]1C` [Compound 185]: 543 nM, 46.6 nM, 186 nM, 114 nM and −99.538%.
The matching figures for `CCC(=O)N1CCC(N(C)c2cc(F)cc(/C=C(\C)[C@H]3OC(=O)C[C@H](O)CC[C@H](C)[C@@H](OC(=O)N4CCN(C)CC4)/C=C/[C@@H]3C)c2)CC1` [Compound 178]: 20.4 nM, 4.31 nM, 2.16 nM, 6.85 nM and −77.714%.
As for `C/C(=C\c1cc(F)c2nnn(C3(C)CCOCC3)c2c1)[C@H]1OC(=O)C[C@H](O)CC[C@H](C)[C@@H](OC(=O)N2CCN(C)CC2)/C=C/[C@@H]1C` [Compound 156], the IC50 is 8.37 nM in assay [1] (setting [4]), 7.91 nM in assay [1] (setting [5]) and 3.95 nM in assay [2]. In assay [3] (setting [7]), the GI50 was 1.27 nM. In addition, in assay [3] (setting [8]), the “CTGlo-ATS Mean MinResponse % 72 h NCIH1568.1” value is −87.369%.
As for `C/C(=C\c1cc(F)c2nnn(C3CCCCC3)c2c1)[C@H]1OC(=O)C[C@H](O)CC[C@H](C)[C@@H](OC(=O)N2CCN(C)CC2)/C=C/[C@@H]1C` [Compound 164], the IC50 in assay [1] (setting [4]) was 20.7 nM; in assay [1] (setting [5]), 27.9 nM; in assay [2] it was 3.59 nM. Further, the GI50 in assay [3] (setting [9]) is 1.54 nM. Moreover, in assay [3] (setting [8]), the “CTGlo-ATS Mean MinResponse % 72 h NCIH1568.1” value is reported as −87.159%.
As for `CCCNC(=O)N1CCC(N(C)c2cc(F)cc(/C=C(\C)[C@H]3OC(=O)C[C@H](O)CC[C@H](C)[C@@H](OC(=O)N4CCN(C)CC4)/C=C/[C@@H]3C)c2)CC1` [Compound 192], the IC50 in assay [1] (setting [4]) turned out to be 14.1 nM; in assay [1] (setting [5]) it was 10.3 nM; in assay [2] it was 3.85 nM. Besides, the GI50 in assay [3] (setting [7]) was 7.49 nM. The “CTGlo-ATS Mean MinResponse % 72 h NCIH1568.1” value in assay [3] (setting [8]) is −75.900%.
Take `C/C(=C\c1cc(F)c2nnn([C@H]3CCCOC3)c2c1)[C@H]1OC(=O)C[C@H](O)CC[C@H](C)[C@@H](OC(=O)N2CCN(C)CC2)/C=C/[C@@H]1C` [Compound 162]: the IC50 in assay [1] (setting [4]) was determined as 9.29 nM; in assay [1] (setting [5]), 7.4 nM; in assay [2], 1.08 nM. Also, the GI50 in assay [3] (setting [9]) was 1.47 nM. The “CTGlo-ATS Mean MinResponse % 72 h NCIH1568.1” value in assay [3] (setting [8]) was −75.943%.
Take `COc1ccc(Cn2nnc3c(F)cc(/C=C(\C)[C@H]4OC(=O)C[C@H](O)CC[C@H](C)[C@@H](OC(=O)N5CCN(C)CC5)/C=C/[C@@H]4C)cc32)cc1` [Compound 166]: the figures for the IC50 in assay [1] (setting [4]), in assay [1] (setting [5]) and in assay [2] were 1510 nM, 48.3 nM and 23.8 nM, respectively. Also, the GI50 in assay [3] (setting [9]) was determined as 17.6 nM. The “CTGlo-ATS Mean MinResponse % 72 h NCIH1568.1” value in assay [3] (setting [8]) is −66.370%.
The matching figures for `C/C(=C\c1cc(F)cc(N(C(C)C)C2CCN(S(C)(=O)=O)CC2)c1)[C@H]1OC(=O)C[C@H](O)CC[C@H](C)[C@@H](OC(=O)N2CCN(C)CC2)/C=C/[C@@H]1C` [Compound 176]: 49.7 nM, 31.2 nM, 38.5 nM, 19 nM and −88.183%.
`C/C(=C\c1cc(F)c2nnn(C3CCN(S(C)(=O)=O)CC3)c2c1)[C@H]1OC(=O)C[C@H](O)CC[C@H](C)[C@@H](OC(=O)N2CCN(C)CC2)/C=C/[C@@H]1C` [Compound 157]: the IC50 was found to be 8.47 nM in assay [1] (setting [4]), 7.49 nM in assay [1] (setting [5]) and 2.27 nM in assay [2]. The GI50 in assay [3] (setting [9]) was determined as 1.29 nM. In assay [3] (setting [8]), the “CTGlo-ATS Mean MinResponse % 72 h NCIH1568.1” value is listed as −90.424%.
For `C/C(=C\c1cc(F)cc(N2CCN(C(=O)CCO)CC2)c1)[C@H]1OC(=O)C[C@H](O)CC[C@H](C)[C@@H](OC(=O)N2CCN(C)CC2)/C=C/[C@@H]1C` [Compound 155] the same measures were 8.45 nM, 5.88 nM, 2.21 nM, 1.91 nM and −83.475%.
As to `C/C(=C\c1cc(F)c2nnn([C@H]3CC[C@H](O)CC3)c2c1)[C@H]1OC(=O)C[C@H](O)CC[C@H](C)[C@@H](OC(=O)N2CCN(C)CC2)/C=C/[C@@H]1C` [Compound 147], the IC50 in assay [1] (setting [4]) was 9.57 nM; in assay [1] (setting [5]), 7.43 nM; in assay [2], 7.3 nM. Besides, the GI50 in assay [3] (setting [9]) amounted to 1.56 nM. Further, in assay [3] (setting [8]), the “CTGlo-ATS Mean MinResponse % 72 h NCIH1568.1” value is −91.884%.
The matching figures for `C/C(=C\c1cc(F)cc(N(C)CC2CCN(S(C)(=O)=O)CC2)c1)[C@H]1OC(=O)C[C@H](O)CC[C@H](C)[C@@H](OC(=O)N2CCN(C)CC2)/C=C/[C@@H]1C` [Compound 187]: 157 nM, 59.6 nM, 43.2 nM, 65 nM and −54.197%.
On to `COCC(=O)N1CCC(N(C)c2cc(F)cc(/C=C(\C)[C@H]3OC(=O)C[C@H](O)CC[C@H](C)[C@@H](OC(=O)N4CCN(C)CC4)/C=C/[C@@H]3C)c2)CC1` [Compound 179], for which the IC50 in assay [1] (setting [4]) came out at 31.4 nM; in assay [1] (setting [5]), 14.2 nM; in assay [2] it was 6.15 nM. Moreover, the GI50 in assay [3] (setting [9]) is 8.7 nM. In addition, the “CTGlo-ATS Mean MinResponse % 72 h NCIH1568.1” value in assay [3] (setting [8]) is −82.684%.
Take `C/C(=C\c1cc(F)cc(N2CCN(C(=O)Cn3cccn3)CC2)c1)[C@H]1OC(=O)C[C@H](O)CC[C@H](C)[C@@H](OC(=O)N(C)CCc2ccc(O)cc2)/C=C/[C@@H]1C` [Compound 239, [(2S,3S,4E,6R,7S,10R)-2-[(E)-1-[3-fluoro-5-[4-(2-pyrazol-1-ylacetyl)piperazin-1-yl]phenyl]prop-1-en-2-yl]-10-hydroxy-3,7-dimethyl-12-oxo-1-oxacyclododec-4-en-6-yl] N-[2-(4-hydroxyphenyl)ethyl]-N-methylcarbamate]: the values for the IC50 in assay [1] (setting [4]), in assay [1] (setting [5]) and in assay [2] were 103 nM, 48 nM and 150 nM, respectively. For the same compound, the “Ratio Ad2.1/2.2” value in assay [1] was 2.151. In addition, in assay [3] (setting [6]), the “CTGlo-ATS Mean MinResponse % 72 h NCIH1568.1” value is given as −77.758%. Also, the GI50 in assay [3] (NCI-H1568, 72 h, read-out: CTGlo-ATS GMean GI50 (nM) 72 h NCIH1568.1, 72 h, NCIH1568.1) is 63.5 nM.
